Test results published in patent US20150265642A1, “NAD BIOSYNTHESIS AND PRECURSORS IN THE PREVENTION AND TREATMENT OF INFLAMMATION” (PRESIDENT AND FELLOWS OF HARVARD COLLEGE, priority 2013, published 2015).
Blank lines part the entries; values can stand above or below the compound they belong to.

Assays:
[1] = test system: PGC-1α/β KO myotubes; assay: Gene expression (qPCR) and HIF-1α immunoblot in PGC-1α/β KO myotubes; assay type: cell-based, mice; details: for effect on induction of mitochondrial ETC genes by SIRT1 overexpression: PGC-1α/β knockout myocytes/myotubes; for effect on induction of mitochondrial ETC genes by SIRT1 overexpression / effect on NMN-induced expression of mitochondrially-encoded ETC genes: 1 mM DMOG or 10 μM DFO, 12 hours; for effect on NMN-induced expression of mitochondrially-encoded ETC genes: primary PGC-1α/β KO myotubes; for nuclear- and mitochondrial-encoded genes: EX-527 48 h
Procedure: Primary myoblasts cells were isolated from WT, SIRT1 KO (Price et al., 2012) and PGC-1α/β KO (Zechner et al., 2010) mice as previously described (Price et al., 2012). WT and PGC-1α/β KO primary myoblasts were plated and allowed to differentiate into myotubes by replacing the media with low glucose DMEM supplemented with 2% horse serum (Sigma-Aldrich) for 4 days. After the differentiation the cells were infected with empty vector or flag-SIRT1 adenovirus as described before (Gerhart-Hines et al., 2007). Media was replaced with fresh DMEM supplemented with 2% horse serum (Sigma-Aldrich) for an additional 48 hr and, after that the cells were harvested for the different assays as described. To investigate the role of HIF-1α in genome asynchrony, PGC-1α/β KO primary myotubes were treated for 12 hours with 1 mM DMOG (Sigma) or 10 μM DFO (Sigma), 24 h after infection with empty vector of flag-SIRT1 adenovirus or after 12 h treatment with […] NMN (Sigma).
(§1) RNA from skeletal muscle tissue and C2C12 cells were extracted with RNeasy mini kit (Qiagen) according to the instructions and quantified using the NanoDrop 1000 spectrophotometer (Thermo Scientific). cDNA was synthesized with the iSCRIP cDNA synthesis kit (BioRad) using 600 ng of RNA. Quantitative RT-PCR reactions were performed using 1 μM of primers and LightCycler® 480 SYBR Green Master (Roche) on an LightCycler® 480 detection system (Roche). Calculations were performed by a comparative method (2-ΔCT) using 18S as an internal control. For mtDNA analysis, total DNA was extracted with DNeasy blood and tissue kit (Qiagen). mtDNA was amplified using primers specific for the mitochondrial cytochrome c oxidase subunit 2 (COX2) gene and normalized to genomic DNA by amplification of the ribosomal protein s18 (rps18) nuclear gene. Primers were designed using the IDT software (IDT) and the primer sequences can be found in Table 1.
(§2) Protein extracts from tissue or C2C12 cells were obtained by lysis in ice-cold lysis buffer (150 mM NaCl, 10 mM Tris HCl (pH 7.4), 1 mM EDTA, 1 mM EGTA, 1% Triton X-100, 0.5% NP-40) supplemented with a cocktail of protease and phosphatase inhibitors (Roche). Protein content was determined by the Bradford protein assay (Biorad), and 50 μg proteins were run on SDS-PAGE under reducing conditions. The separated proteins were then electrophoretically transferred to a polyvinylidene difluoride membrane (Perkin-Elmer). […] The immunostaining was detected using horseradish peroxidase-conjugated anti-rabbit or anti-mouse immunoglobulin for 1 h at room temperature.

[2] = test system: C2C12 myoblasts; assay: mtDNA content and ETC gene expression in C2C12 myoblasts; assay type: cell-based
Procedure: C2C12 cell line (ATCC) was cultured in low glucose Dulbecco's modified eagle medium (DMEM) (Invitrogen) supplemented with 10% FBS (Invitrogen) and a mix of antibiotic and antimycotic (Invitrogen). To inhibit SIRT1, cells were treated the vehicle (0.001% DMSO) or 10 μM EX-527 (Tocris) for 12 h. C2C12 myoblasts were infected with an empty or SIRT1 adenovirus as described before (Gerhart-Hines et al., 2007) and the media was replaced with fresh DMEM for additional 48 h, after that the cells were treated as described before. To test the effects of hypoxia and HIFα stabilization in genome asyncrony, C2C12 myoblasts were exposed to 1% oxygen for 16 h or treated with the vehicle (0.001% DMSO) or DMOG (Cayman) for the same period of time.
as §1

[3] = test system: inflammation related markers (TNFa, IL-6, IL-18); assay: qPCR of inflammation related markers in gastrocnemius; assay type: in vivo, C57BL/6J mice; details: 6-month-old mice, DMOG IP 300 mg/kg/day, 5 days
Procedure: C57BL/6J mice of 3, 6, 22, or 24 months of age were obtained from the National Institutes of Aging mouse aging colony. Mice were acclimated for at least one-week prior to sacrifice. 3, 6, 22 and 24-month-old mice were given interperitoneal (IP) injections of 500 mg NMN/kg body weight per day or the equivalent volume of PBS for 7 consecutive days at 5:00 pm and 7:00 am on day 8 and sacrificed 4 hr after last injection. All animal studies followed the guidelines of and were approved by the Harvard Institutional Animal Care and Use Committee
C57BL/6J mice of 6 months of age were given interperitoneal (IP) injections of 300 mg DMOG/kg body weight per day or the equivalent volume of PBS for 5 consecutive days. All animal studies followed the guidelines of and were approved by the Harvard Institutional Animal Care and Use Committee
RNA from skeletal muscle and aorta were extracted with RNeasy mini kit (Qiagen) according to the instructions and quantified using the NanoDrop 1000 spectrophotometer (Thermo Scientific). cDNA was synthesized with the iSCRIP cDNA synthesis kit (BioRad) using 600 ng of RNA. Quantitative RT-PCR reactions were performed using 1 μM of primers and LightCycler® 480 SYBR Green Master (Roche) on an LightCycler® 480 detection system (Roche). Calculations were performed by a comparative method (2-ΔCT) using 18S as an internal control. […]

[4] = test system: TFAM promoter; assay: TFAM promoter activity (luciferase assay) in primary WT myoblasts; assay type: cell-based, mouse
Procedure: TFAM promoter, VHL promoter, HRE and c-Myc activity were determined using a luciferase-based system. Luciferase activity was measured using the Dual-Luciferase Reporter Assay System (Promega) with Renilla as the reference.
TFAM promoter activity was evaluated using a TFAM promotes-luc plasmid. A fragment of the mouse Tfam promoter (1.4 kb upstream of the coding sequence) was cloned into a pGL4.15 vector (Promega). Luciferase activity was measured using the Dual-Luciferase Reporter Assay System (Promega) with Renilla as the reference 48 h after transfection.

[5] = test system: HIF-1α; assay: DMOG treatment of SIRT1-tg mice (HIF-1α immunoblot, qPCR, ATP content in gastrocnemius); assay type: in vivo; details: DMOG IP 300 mg/kg/day, 5 days
Procedure: Whole body SIRT1 overexpressor (SIRT1-tg) mice of 6 months of age were given interperitoneal (IP) injections of 300 mg DMOG/kg body weight per day or the equivalent volume of PBS for 5 consecutive days.
ATP content was measured with a commercial kit according to the manufacturer's instructions (Roche).
as §1, §2

[6] = test system: primary myoblasts; assay: NAD+/NADH ratio and HIF-1α immunoblot in primary WT myoblasts treated with pyruvate or lactate; assay type: cell-based, mice; details: 10 mM lactate, 24 h
Description: FIG. 21 provides additional data related to the content of FIG. 14. FIG. 21A depicts HIF-1α target genes (PGK-1, Glut1, PDK1 and Vegfa) expression in gastrocnemius of WT and SIRT1 KO mice. Relative expression values were normalized to WT mice (n=5). FIG. 21B depicts hypoxia response element activity in primary myoblasts isolated from WT and SIRT1 KO mice and treated with or without DMOG. Relative luciferase activity was normalized to WT cells (n=6, *p<0.05 versus WT). FIG. 21C depicts a representative immunoblot of HIF-1α and Tubulin in PGC-1α/β KO myotubes treated with adenovirus overexpressing SIRT1 or empty vector as well as treatment with DMSO or with HIF stabilizing compound DMOG. FIG. 21D depicts NAD+/NADH ration measured in primary WT myoblasts treated with either 10 mM pyruvate, 10 mM lactate or vehicle for 24 h (n=4). […] FIG. 21J depicts mitochondrial DNA content analyzed by qPCR in control, HIF-1α DPA or HIF-2α DPA C2C12 cells treated with adenovirus overexpressing SIRT1 or empty vector. […] FIG. 21K depicts ARNT mRNA analyzed by qPCR in C2C12 cells infected with ARNT or nontargeting shRNA. […] FIG. 21L depicts mitochondrial DNA content analyzed by qPCR in C2C12 cells infected with ARNT or nontargeting shRNA. […] FIG. 21M depicts ND1, Cytb, COX1 and ATP6 mRNA analyzed by qPCR in C2C12 cells infected with ARNT or nontargeting shRNA. […] Values are expressed as mean±SEM. […]

[7] = C2C12 myoblasts treated with DMOG, 16 h

SMILES: CC(=O)N(O)CCCCCNC(=O)CCC(=O)N(O)CCCCCNC(=O)CCC(=O)N(O)CCCCCN [DFO, desferrioxamine]
effect on induction of mitochondrial ETC genes by SIRT1 overexpression [1]: completely blocked
effect on NMN-induced expression of mitochondrially-encoded ETC genes [1]: completely abolished

TFAM promoter activity with c-Myc consensus sequence mutation ([4]; DMOG, absence of the c-Myc binding site): does not have an additive effect
SMILES: COC(=O)CNC(=O)C(=O)OC [DMOG, dimethyloxaloylglycine]
effect on NAD (pyruvate) mediated increases in mitochondrial-encoded genes ([1]; PGC-1α/β KO cells, pyruvate in the presence of DMOG): can be inhibited
HIF-1α protein ([1]; PGC-1α/β KO myotubes, DMOG (FIG. 21C)): stabilizes HIF-1α protein
effect on induction of mitochondrial ETC genes by SIRT1 overexpression [1]: completely blocked
expression of mitochondrial-encoded genes ([1]; PGC-1α/β knockout myotubes, DMOG compared to vehicle control): induced a decline
effect on NMN-induced expression of mitochondrially-encoded ETC genes [1]: completely abolished
expression of mitochondrially-encoded ETC genes [2, 7]: specific decline
mtDNA content [2, 7]: specific decline
inflammation related markers (TNFalpha, IL-6, Il-1b and IL-18) in the skeletal muscle [3]: induces inflammatory markers in the skeletal muscle
full length TFAM promoter activity ([4]; DMOG vs vehicle (DMSO)): reduces the full length TFAM promoter activity
HIF-1α protein [5]: increase HIF-1α
increase in ATP levels observed in SIRT1-tg mice [5]: abolished
increase in the expression of mitochondrial-encoded genes observed in SIRT1-tg mice [5]: abolished the increase

SMILES: NC(=O)C1CCCc2c1[nH]c1ccc(Cl)cc21 (centres unmarked) [EX-527]
nuclear- and mitochondrial-encoded genes ([1]; PGC-1α/β KO myotubes reconstituted with PGC-1α T177A/S538A mutant): only the mitochondrial-encoded genes decreased
nuclear- and mitochondrial-encoded genes ([1]; PGC-1α/β KO myotubes reconstituted with WT PGC-1α): decreased both nuclear- and mitochondrial-encoded genes
genome asynchrony ([2]; C2C12 cells, 10 μM EX-527, 12 h): induced

SMILES: CC(O)C(=O)O (centres unmarked) [lactate]
HIF-1α protein [6]: induces HIF-1α protein stabilization
NAD+/NADH ratio [6]: decreasing
